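48-hour exposure; five concentrations; linearly interpolated endpoints. GI50 = concentration required for 50% inhibition of growth. TGI marks complete inhibition of growth.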 Where a SMILES comes first, the peptide text is derived from it. The star is where a group is joined. Trt = c1ccc(C(c2ccccc2)(c2ccccc2)*)cc1; Cbz = O=C(OCc1ccccc1)*
Columns and labels:
Test in all cases: NCI anticancer screen, dose series, 48 h
HOP-92 NSCLC = test system: HOP-92 NSCLC
UACC-62 melanoma = test system: UACC-62 melanoma
CCRF-CEM leukemia = test system: CCRF-CEM leukemia
HT29 colon = test system: HT29 colon
A498 renal = test system: A498 renal
HCT-116 colon = test system: HCT-116 colon
COLO 205 colon = test system: COLO 205 colon
TK-10 renal = test system: TK-10 renal
SR leukemia = test system: SR leukemia
NCI/ADR-RES ovarian = test system: NCI/ADR-RES ovarian

SMILES	TGI (HOP-92 NSCLC) [µM]	TGI (UACC-62 melanoma) [µM]	TGI (CCRF-CEM leukemia) [µM]	TGI (HT29 colon) [µM]	TGI (A498 renal) [µM]	TGI (HCT-116 colon) [µM]	TGI (COLO 205 colon) [µM]	TGI (TK-10 renal) [µM]	GI50 (UACC-62 melanoma) [µM]	GI50 (CCRF-CEM leukemia) [µM]	GI50 (HT29 colon) [µM]	GI50 (A498 renal) [µM]	GI50 (HCT-116 colon) [µM]	GI50 (COLO 205 colon) [µM]	GI50 (TK-10 renal) [µM]	TGI (SR leukemia) [µM]	TGI (NCI/ADR-RES ovarian) [µM]	GI50 (SR leukemia) [µM]	GI50 (NCI/ADR-RES ovarian) [µM]	GI50 (HOP-92 NSCLC) [µM]
COC(=O)C(C(=O)C(N)=O)c1csc(-n2nc(-c3ccccc3)cc2-c2ccccc2)n1 (centres undefined)	> 100	> 31.6	> 31.6	> 100	> 31.6	> 31.6	> 31.6	> 31.6	–	–	–	–	–	–	–	–	–	–	–	–
[CH3][Sn]1([CH3])[O]CC(COc2cc(Cl)c(Cl)cc2Cl)[O]1 (centres undefined)	–	> 100	> 100	> 100	> 100	> 100	> 100	> 100	40.7	32.5	> 100	70	73.7	> 100	> 100	–	–	–	–	–
NNC(=O)C(O)C(O)C(=O)NN (centres undefined)	–	> 100	> 100	> 100	> 100	> 100	> 100	> 100	–	–	–	–	–	–	–	> 100	> 100	–	–	–
O=C(/C=C/c1ccccc1)CCC1C(=O)NC(=S)NC1=O	> 100	> 100	–	–	> 100	> 100	> 100	–	–	–	–	–	–	–	–	–	> 100	–	–	–
CC(=O)NC(CCCN(Cc1ccccc1)C(=O)N(C)N=O)C(=O)NCc1ccccc1 (centres undefined)	> 100	> 100	> 100	> 100	> 100	> 100	> 100	> 100	–	–	–	–	–	–	–	–	–	–	–	–
COc1cc2c(cc1OCCCOc1ccc(-c3nc4ccc(N5CCN(C)CC5)cc4[nH]3)cc1)N=C[C@@H]1CCCN1C2=O	–	< 0.0201	2.33	> 100	< 0.01	> 37	> 100	0.492	< 0.0133	< 0.01	< 0.01	< 0.01	< 0.01	< 0.01	< 0.01	< 0.01	0.161	< 0.01	< 0.017	–
Cc1ccc2nc(NC(=O)C(=O)CC(=O)c3cccc4ccccc34)sc2c1	69.9	86.8	> 100	> 100	> 100	–	> 100	44.6	–	–	–	–	–	–	–	–	–	–	–	–
Cc1noc(/N=C2\C=C(Nc3onc(C)c3C)C(=O)c3ccccc32)c1C	> 100	> 100	> 100	> 100	> 100	> 100	> 100	> 100	–	–	–	–	–	–	–	> 100	–	–	–	–
CC(=O)OC(=O)O/C=C\CCl	–	> 100	> 100	–	> 100	> 100	> 100	> 100	–	–	–	–	–	–	–	> 100	–	–	–	–
CN=C(N)N/N=C(\C)c1ccc2c(c1)Cc1ccccc1-2	5.67	2.86	7.14	3.39	9.21	2.74	3.02	14.8	1.5	1.73	1.61	2.89	1.43	1.66	3.18	–	4.5	–	2.02	1.63
COC(=O)C(=O)C(C(=O)C(=O)Nc1cc(Cl)c(Cl)cc1Cl)c1nc2ccc([N+](=O)[O-])cc2[nH]c1=O (centres undefined)	–	> 100	> 100	–	–	> 100	> 100	> 100	–	–	–	–	–	–	–	> 100	–	–	–	–
COc1cc(/C=N/NC(=O)c2ccccc2Nc2cccc(C(F)(F)F)c2)cc(OC)c1OC	–	11.6	4.33	10.8	6.76	6.4	9.87	8.74	3.66	1.03	1.67	1.93	2.48	2.72	2.36	4.16	14.4	1.3	3.87	–
CCc1cc(Cc2ccc(C)c(NC(=O)C(=O)C3C(=O)NC(=O)NC3=O)c2CC)cc(C)c1NC(=O)C(=O)C1C(=O)NC(=O)NC1=O	–	> 100	> 100	–	> 100	> 100	> 100	> 100	–	–	–	–	–	–	–	–	–	–	–	–
CC1=CC(=O)NP(=O)(C23CC4CC(CC(C4)C2)C3)N1 (centres undefined)	> 100	> 100	> 100	> 100	> 100	> 100	> 100	> 100	–	–	–	–	–	–	–	> 100	–	–	–	–
O=CCCCC(Sc1ccccc1)Sc1ccccc1	–	24.5	44.6	–	> 100	28.4	57.9	> 100	–	–	–	–	–	–	–	48.3	–	–	–	–
COc1ccc2c(c1)c1c3n2CCNN=C3CCC1	> 100	> 100	> 100	> 100	> 100	> 100	> 100	> 86.9	–	–	–	–	–	–	–	> 100	–	–	–	–
CCCCCCCCCCCCCCCCCC(=O)NCC(COP(=O)(O)O)OCC (centres undefined)	42.4	> 100	> 100	> 100	> 100	> 100	> 100	> 100	–	–	–	–	–	–	–	> 100	–	–	–	–
COc1ccc(C)cc1C1CCC(=O)O1 (centres undefined)	–	> 100	> 100	> 100	> 100	> 100	> 100	> 100	–	–	–	–	–	–	–	> 100	–	–	–	–
C/C(CC(=O)Nc1cccc([N+](=O)[O-])c1)=N\NC(=O)CC#N	> 100	> 100	> 100	> 100	–	> 100	> 100	> 100	–	–	–	–	–	–	–	–	–	–	–	–
COC(=O)C(CSC(c1ccccc1)(c1ccccc1)c1ccccc1)NC(=O)C(CC(N)=O)NC(=O)OCc1ccccc1 (stereo not drawn) (Cbz-Asn-Cys(Trt)-OMe; configuration not given here)	14.9	14.1	19.7	17.2	13.8	10.7	3.4	26.8	3.15	3.33	5.03	3.67	2.79	1.64	5.69	–	20.8	–	4.48	2.64
NS(=O)(=O)c1ccc(NC(=O)c2cccc(NC3=C(Cl)C(=O)N(Cc4ccccc4)C3=O)c2)cc1	31.1	22.9	8.17	> 100	23.7	43.4	85.8	31.4	9.05	2.82	33.3	9.25	13.9	22.6	15.2	1.73	–	0.323	–	8.09
